Reference: patent US12594276B2, “Inhibitors of human immunodeficiency virus replication” (ViiV Healthcare UK (No.5) Limited, priority 2024, dated 2026)
Where two headings read alike, the source gives them in different places.

Key:
[1] = Compound cytotoxicity, XTT-based colorimetric assay; format: cell-based; conditions: human
Summary of the method: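 CC50 derived from XTT colorimetric signal measured on day 4 in MT2 cells that were not infected. All other steps followed the antiviral assay protocol.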

[2] = test system: recombinant NL4-3 virus (nef section replaced with Renilla luciferase gene) in MT-2 cells; assay: HIV cell culture assay (antiviral activity, luciferase readout); format: cell-based; conditions: Renilla, NL43, MT-2 cells infected for 4-5 days with recombinant NL4-3 Renilla luciferase virus
Summary of the method: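 Compound activity was measured as reduction of luciferase in MT-2 cells infected for 4-5 days with serially diluted compound present. EC50 values were calculated with the median effect equation.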

[3] = uninfected MT2 cells, day 4, XTT, read-out: CC50

Row | SMILES | CC50 at 4 days [1] [nM] | EC50 [2] [nM] | CC50 at 4 days [1, 3] [nM]
1 | CS(=O)(=O)Nc1nn(CCN2[C@@H]3CC[C@H]2CC(F)(F)C3)c2c(-n3c([C@H](Cc4cc(F)cc(F)c4)NC(=O)Cn4nc(C(F)F)c5c4C(F)(F)[C@@H]4C[C@H]54)nc4nc(C5CCC(F)(F)CC5)ccc4c3=O)ccc(Cl)c12 (atropisomer, axis not shown; (P)) [Example 43, N-[(1S)-1-[(3P)-3-(4-chloro-1-{2-[(1R,5S)-3,3-difluoro-8-azabicyclo[3.2.1]octan-8-yl]ethyl}-3-methanesulfonamido-1H-indazol-7-yl)-7-(4,4-difluorocyclohexyl)-4-oxo-3H,4H-pyrido[2,3-d]pyrimidin-2-yl]-2-(3,5-difluorophenyl)ethyl]-2-[(2S,4R)-9-(difluoromethyl)-5,5-difluoro-7,8-diazatricyclo[4.3.0.0^2,^4]nona-1(6),8-dien-7-yl]acetamide] | > 50 | 0.021 | –
2 | Cc1cc(C2CCC(F)(F)CC2)nc2nc([C@H](Cc3cc(F)cc(F)c3)NC(=O)Cn3nc(C(F)F)c4c3C(F)(F)[C@@H]3C[C@H]43)n(-c3ccc(Cl)c4c(NS(C)(=O)=O)nn(CCOC(F)F)c34)c(=O)c12 (atropisomer, axis not shown; (P)) [Example 94, N-[(1S)-1-[(3P)-3-{4-chloro-1-[2-(difluoromethoxy)ethyl]-3-methanesulfonamido-1H-indazol-7-yl}-7-(4,4-difluorocyclohexyl)-5-methyl-4-oxo-3H,4H-pyrido[2,3-d]pyrimidin-2-yl]-2-(3,5-difluorophenyl)ethyl]-2-[(2S,4R)-9-(difluoromethyl)-5,5-difluoro-7,8-diazatricyclo[4.3.0.0^2,^4]nona-1(6),8-dien-7-yl]acetamide] | – | 0.023 | > 50
3 | CS(=O)(=O)Nc1nn(CCN2CC(F)(F)C2)c2c(-n3c([C@H](Cc4cc(F)cc(F)c4)NC(=O)Cn4nc(C(F)F)c5c4C(F)(F)[C@@H]4C[C@H]54)nc4nc(C5CCC(F)(F)CC5)ccc4c3=O)ccc(Cl)c12 (atropisomer, axis not shown; (P)) [Example 48, N-[(1S)-1-[(3P)-3-{4-chloro-1-[2-(3,3-difluoroazetidin-1-yl)ethyl]-3-methanesulfonamido-1H-indazol-7-yl}-7-(4,4-difluorocyclohexyl)-4-oxo-3H,4H-pyrido[2,3-d]pyrimidin-2-yl]-2-(3,5-difluorophenyl)ethyl]-2-[(2S,4R)-9-(difluoromethyl)-5,5-difluoro-7,8-diazatricyclo[4.3.0.0^2,^4]nona-1(6),8-dien-7-yl]acetamide] | – | 0.018 | > 50
4 | CS(=O)(=O)Nc1nn(CCN2CCC(F)(F)CC2)c2c(-n3c([C@H](Cc4cc(F)cc(F)c4)NC(=O)Cn4nc(C(F)F)c5c4C(F)(F)[C@@H]4C[C@H]54)nc4nc(C5CCC(F)(F)CC5)cc(CF)c4c3=O)ccc(Cl)c12 (atropisomer, axis not shown; (P)) [Example 514, N-[(1S)-1-[(3P)-3-{4-chloro-1-[2-(4,4-difluoropiperidin-1-yl)ethyl]-3-methanesulfonamido-1H-indazol-7-yl}-7-(4,4-difluorocyclohexyl)-5-(fluoromethyl)-4-oxo-3H,4H-pyrido[2,3-d]pyrimidin-2-yl]-2-(3,5-difluorophenyl)ethyl]-2-[(2S,4R)-9-(difluoromethyl)-5,5-difluoro-7,8-diazatricyclo[4.3.0.0^2,^4]nona-1(6),8-dien-7-yl]acetamide] | – | 0.014 | > 20
5 | Cc1cc(C2CCC(F)(F)CC2)nc2nc([C@H](Cc3cc(F)cc(F)c3)NC(=O)Cn3nc(C4CC4)c4c3C[C@@H]3C[C@H]43)n(-c3ccc(Cl)c4c(NS(C)(=O)=O)nn(CCN5CCOCC5)c34)c(=O)c12 (atropisomer, axis not shown; (P)) [Example 114, N-[(1S)-1-[(3P)-3-{4-chloro-3-methanesulfonamido-1-[2-(morpholin-4-yl)ethyl]-1H-indazol-7-yl}-7-(4,4-difluorocyclohexyl)-5-methyl-4-oxo-3H,4H-pyrido[2,3-d]pyrimidin-2-yl]-2-(3,5-difluorophenyl)ethyl]-2-[(2S,4S)-9-cyclopropyl-7,8-diazatricyclo[4.3.0.0^2,^4]nona-1(6),8-dien-7-yl]acetamide] | – | 0.013 | > 50
6 | CS(=O)(=O)Nc1nn(CCN2CCCC(F)(F)C2)c2c(-n3c([C@H](Cc4cc(F)cc(F)c4)NC(=O)Cn4nc(C(F)F)c5c4C(F)(F)[C@@H]4C[C@H]54)nc4nc(C5CCC(F)(F)CC5)ccc4c3=O)ccc(Cl)c12 (atropisomer, axis not shown; (P)) [Example 168, N-[(1S)-1-[(3P)-3-{4-chloro-1-[2-(3,3-difluoropiperidin-1-yl)ethyl]-3-methanesulfonamido-1H-indazol-7-yl}-7-(4,4-difluorocyclohexyl)-4-oxo-3H,4H-pyrido[2,3-d]pyrimidin-2-yl]-2-(3,5-difluorophenyl)ethyl]-2-[(2S,4R)-9-(difluoromethyl)-5,5-difluoro-7,8-diazatricyclo[4.3.0.0^2,^4]nona-1(6),8-dien-7-yl]acetamide] | – | 0.018 | > 50
7 | COCCCn1nc(NS(C)(=O)=O)c2c(Cl)ccc(-n3c([C@H](Cc4cc(F)cc(F)c4)NC(=O)Cn4nc(C(F)F)c5c4C(F)(F)[C@@H]4C[C@H]54)nc4nc(C5CCC(F)(F)CC5)cc(NC[C@@H]5CCOC5)c4c3=O)c21 (atropisomer, axis not shown; (P)) [Example 568, N-[(1S)-1-[(3P)-3-[4-chloro-3-methanesulfonamido-1-(3-methoxypropyl)-1H-indazol-7-yl]-7-(4,4-difluorocyclohexyl)-4-oxo-5-({[(3S)-oxolan-3-yl]methyl}amino)-3H,4H-pyrido[2,3-d]pyrimidin-2-yl]-2-(3,5-difluorophenyl)ethyl]-2-[(2S,4R)-9-(difluoromethyl)-5,5-difluoro-7,8-diazatricyclo[4.3.0.0^2,^4]nona-1(6),8-dien-7-yl]acetamide] | – | 0.01 | > 20
8 | CC1(C)CN(CCn2nc(NS(C)(=O)=O)c3c(Cl)ccc(-n4c([C@H](Cc5cc(F)cc(F)c5)NC(=O)Cn5nc(C6CC6)c6c5C[C@@H]5C[C@H]65)nc5nc(C6CCC(F)(F)CC6)cc(C(F)F)c5c4=O)c32)CC(C)(C)O1 (atropisomer, axis not shown; (P)) [Example 421, N-[(1S)-1-[(3P)-3-{4-chloro-3-methanesulfonamido-1-[2-(2,2,6,6-tetramethylmorpholin-4-yl)ethyl]-1H-indazol-7-yl}-7-(4,4-difluorocyclohexyl)-5-(difluoromethyl)-4-oxo-3H,4H-pyrido[2,3-d]pyrimidin-2-yl]-2-(3,5-difluorophenyl)ethyl]-2-[(2S,4S)-9-cyclopropyl-7,8-diazatricyclo[4.3.0.0^2,^4]nona-1(6),8-dien-7-yl]acetamide] | – | 0.012 | > 20
9 | Cc1cc(C2(F)CCC(F)(F)CC2)nc2nc([C@H](Cc3cc(F)cc(F)c3)NC(=O)Cn3nc(C4CC4)c4c3C[C@@H]3C[C@H]43)n(-c3ccc(Cl)c4c(NS(C)(=O)=O)nn(CCN5C[C@H](C)OC(C)(C)C5)c34)c(=O)c12 (atropisomer, axis not shown; (P)) [Example 583, N-[(1S)-1-[(3P)-3-(4-chloro-3-methanesulfonamido-1-{2-[(6S)-2,2,6-trimethylmorpholin-4-yl]ethyl}-1H-indazol-7-yl)-5-methyl-4-oxo-7-(1,4,4-trifluorocyclohexyl)-3H,4H-pyrido[2,3-d]pyrimidin-2-yl]-2-(3,5-difluorophenyl)ethyl]-2-[(2S,4S)-9-cyclopropyl-7,8-diazatricyclo[4.3.0.0^2,^4]nona-1(6),8-dien-7-yl]acetamide] | – | 0.031 | > 20
10 | COCCCn1nc(NS(C)(=O)=O)c2c(Cl)ccc(-n3c([C@H](Cc4cc(F)cc(F)c4)NC(=O)Cn4nc(C(F)(F)F)c5c4C(F)(F)[C@@H]4C[C@H]54)nc4nc(C5CCC(F)(F)CC5)cc(C)c4c3=O)c21 (atropisomer, axis not shown; (P)) [Example 89, N-[(1S)-1-[(3P)-3-[4-chloro-3-methanesulfonamido-1-(3-methoxypropyl)-1H-indazol-7-yl]-7-(4,4-difluorocyclohexyl)-5-methyl-4-oxo-3H,4H-pyrido[2,3-d]pyrimidin-2-yl]-2-(3,5-difluorophenyl)ethyl]-2-[(2S,4R)-5,5-difluoro-9-(trifluoromethyl)-7,8-diazatricyclo[4.3.0.0^2,^4]nona-1(6),8-dien-7-yl]acetamide] | – | 0.014 | > 50
11 | Cc1cc(C2(F)CCC(F)(F)CC2)nc2nc([C@H](Cc3cc(F)cc(F)c3)NC(=O)Cn3nc(C4CC4)c4c3C[C@@H]3C[C@H]43)n(-c3ccc(Cl)c4c(NS(C)(=O)=O)nn(CCN5C[C@H](F)C[C@H](F)C5)c34)c(=O)c12 (atropisomer, axis not shown; (P)) [Example 12, N-[(1S)-1-[(3P)-3-(4-chloro-1-{2-[(3R,5S)-3,5-difluoropiperidin-1-yl]ethyl}-3-methanesulfonamido-1H-indazol-7-yl)-5-methyl-4-oxo-7-(1,4,4-trifluorocyclohexyl)-3H,4H-pyrido[2,3-d]pyrimidin-2-yl]-2-(3,5-difluorophenyl)ethyl]-2-[(2S,4S)-9-cyclopropyl-7,8-diazatricyclo[4.3.0.0^2,4]nona-1(6),8-dien-7-yl]acetamide] | – | 0.012 | > 20000
